Assay results taken from patent US10662150B2, “Sulfonic acid salt composition and use thereof for color stabilization” (L. BRÜGGEMANN GMBH & CO. KG, priority 2016, dated 2020).

Assay: Aqueous solubility according to OECD 105

Compound | Solubility in water at 23° C.
2-hydroxy-2-sulfonatoacetic acid disodium salt | 7%
O=C([O-])C(O)S(=O)(=O)[O-].[Zn+2] (centres unmarked) [Example 1, Zinc-Salt of 2-Hydroxy-2-Sulfonatoacetic Acid] | 39%
